These results are taken from US8329707B2, “Substituted pyrazine compounds” (Astellas Pharma Inc., priority 2008, dated 2012).

Counter-ions that a name gives are not always drawn.

For the first test, the system named is ICR mouse. The experiment in a line: Oral glucose tolerance test in normal mouse. The class given is in vivo. The conditions noted are these: ICR mouse fasted overnight; 10 mg/kg oral, glucose loading after 30 minutes; AUC lowering rate of blood glucose up to 2 hours after glucose loading vs solvent control. As for the experimental part: The test compound was dissolved in a solvent (5% Cremophor, aqueous 5% DMSO solution), and to an ICR mouse after fasting overnight was orally administered 10 mg/kg of the test compound, and after 30 minutes, oral glucose loading was carried out. Immediately before the administration of the test compound, immediately before the glucose loading, and 0.25, 0.5, 1, and 2 hours after the glucose loading, blood was collected and blood glucose levels were measured. An AUC lowering rate (%) of the blood glucose levels from immediately before the glucose loading to 2 hours after the glucose loading with respect to that of the solvent control group was calculated.
Consider `COc1cnc(NC(=O)[C@H](C[C@H]2CCC(O)C2)c2ccc(S(=O)(=O)C3CC3)c(C3CC3)c2)cn1` (stereo partly shown) [Example 79], for which the inhibition in vivo (in general, the percentage by which the read-out fell short of the control) at 10 mg/kg was 45%.
The compound `Cc1cnc(NC(=O)[C@H](C[C@H]2CCC(=O)C2)c2ccc(S(=O)(=O)C3CC3)c(C3CC3)c2)cn1` [Example 55] had an inhibition in vivo at 10 mg/kg of 56%.
For the compound `COc1cnc(NC(=O)[C@H](C[C@H]2CCC(=O)C2)c2ccc(S(=O)(=O)C3CC3)c(C3CC3)c2)cn1` [Example 72], the inhibition in vivo at 10 mg/kg was 59%.

Another test addresses T1, recombinant human hepatic type GK (GST-hGK2) (Homo sapiens, UniProt P35557).
T1 construct: made in house; host or cells: Escherichia coli BL21
T1 sequence (P35557 1-466 isoform P35557-2): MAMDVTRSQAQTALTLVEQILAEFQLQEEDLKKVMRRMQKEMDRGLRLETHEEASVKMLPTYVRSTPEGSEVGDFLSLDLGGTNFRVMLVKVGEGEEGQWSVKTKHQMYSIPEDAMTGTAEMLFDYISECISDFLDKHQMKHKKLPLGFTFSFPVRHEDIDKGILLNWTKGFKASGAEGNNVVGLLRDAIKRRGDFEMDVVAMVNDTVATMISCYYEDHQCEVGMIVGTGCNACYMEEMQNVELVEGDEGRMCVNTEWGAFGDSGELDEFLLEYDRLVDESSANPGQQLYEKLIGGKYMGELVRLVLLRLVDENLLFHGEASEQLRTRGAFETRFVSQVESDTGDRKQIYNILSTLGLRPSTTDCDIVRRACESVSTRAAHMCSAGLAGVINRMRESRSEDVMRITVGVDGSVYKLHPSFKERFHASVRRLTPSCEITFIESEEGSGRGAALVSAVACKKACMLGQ
Put plainly: Measurement of glucokinase (GK) activation. The format is biochemical. The conditions noted are these: 10 min, read-out: GK activation (%). As for the experimental part: The present test was carried out in accordance with the method described in Science 301: 370-373, 2003 and with partial modification thereof. Hereinafter, the summary is described.
First, the cloning of GK (GenBank No. AK122876) was carried out. 5′-[…]-3′(SEQ ID NO: 1) and 5′-[…]-3′(SEQ ID NO: 2) were used as primers, and pME18S-FL3-Glucokinase isoform 2 was used as a template to carry out PCR. The obtained reaction product was TA-cloned into a pGEM-T easy vector, digested with EcoRI and XhoI, and introduced to the pGEX-5X-1 vector digested in the same manner by ligation. By using this plasmid DNA (pGEX-human Glucokinase 2), a recombinant human hepatic type GK (GST-hGK2) fused with GST (Glutathione S-transferase) was expressed in Escherichia coli (BL21 strain) and purified by Glutathione Sepharose.
The reaction of GK was carried out at 27° C. on a 96-well plate. First, 1 μL of the test compound (final concentration 10 μM) that has been diluted with dimethylsulfoxide (DMSO) was added to 89 μL of an enzyme mixed liquid (all final concentration 25 mM HEPES pH 7.4, 25 mM KCl, 2 mM MgCl2, 1 mM ATP, 0.1% BSA, 1 mM DTT, 1 mM NADP (nicotinamide adenine dinucleotide phosphate), 2.5 U/ml glucose-6-phosphate dehydrogenase, GST-hGK2 adjusted to ΔODCont of about 0.05 to 0.10). Subsequently, 10 μL of a substrate solution (final concentration 5 mM glucose) was added to start the reaction. In order to quantify a final product NADPH, an absorbance at a wavelength of 340 nm was measured, and the GK activation (%) of the test compound was calculated from the increase of absorbance during the first 10 minutes (ΔOD) after initiation of the reaction. GK activation (%)=[(ΔODTest)−(ΔODCont)]/(ΔODCont)×100
ΔODTest: ΔOD at test compound
Regarding `CC(=O)c1csc(NC(=O)/C(=C/[C@H]2CCC(=O)C2)c2ccc(S(=O)(=O)C3CC3)c(C3CC3)c2)n1` [Example 44], the activation at 10 µM is 389%.
For the compound `O=C1CCC(/C=C(/C(=O)Nc2cnc(C(O)CO)cn2)c2ccc(S(=O)(=O)C3CC3)c(C3CC3)c2)C1` (stereo not shown) [Example 38], the activation at 10 µM was 386%.

The same test, now with this note: 10 min; test compound final concentration 10 μM; 5 mM glucose; 27° C.; increase of absorbance at 340 nm during first 10 minutes vs DMSO; read-out: GK activation (%).
For the compound `O=C1CC[C@H](/C=C(/C(=O)Nc2ncc(Cl)s2)c2ccc(S(=O)(=O)C3CC3)c(C3CC3)c2)C1` [Example 41], the activation at 10 µM worked out at 362%.
As for `COc1cnc(NC(=O)[C@H](C[C@H]2CCC(O)C2)c2ccc(S(=O)(=O)C3CC3)c(C3CC3)c2)cn1` (stereo partly shown) [Example 79], the activation at 10 µM came to 297%.
For `Cc1cnc(NC(=O)[C@H](C[C@H]2CCC(=O)C2)c2ccc(S(=O)(=O)C3CC3)c(C3CC3)c2)cn1` [Example 55], the activation at 10 µM came to 315%.
On to `O=C(Nc1ncc(Cl)s1)/C(=C/C1CCOC1)c1ccc(S(=O)(=O)C2CC2)c(C2CC2)c1` (stereo not shown) [Example 27], for which the activation at 10 µM turned out to be 211%.
On the same count and under the same terms, the figure for `Cc1ccc(NC(=O)[C@H](C[C@H]2CCC(O)C2)c2ccc(S(=O)(=O)C3CC3)c(C3CC3)c2)nc1` (stereo partly shown) [Example 81] is 211%; for `Cn1ccc(NC(=O)/C(=C/C2CCOC2)c2ccc(S(=O)(=O)C3CC3)c(C3CC3)c2)n1` (stereo not shown) [Example 25] it is 334%; for `COc1cnc(NC(=O)[C@H](C[C@H]2CCC(=O)C2)c2ccc(S(=O)(=O)C3CC3)c(C3CC3)c2)cn1` [Example 72] it is 311%.
Regarding `O=C1CC[C@H](/C=C(/C(=O)Nc2ncc(F)s2)c2ccc(S(=O)(=O)C3CC3)c(C3CC3)c2)C1` [Example 47], the activation at 10 µM amounted to 297%.
The same measure, in the same setting: the figure for `Cc1cnc(NC(=O)/C(=C/[C@@H]2CCC(=O)C2)c2ccc(S(=O)(=O)C3CC3)c(C3CC3)c2)cn1` [Example 34] is 245%.
Regarding `O=C1CC[C@H](C[C@@H](C(=O)Nc2cnc(CCO)cn2)c2ccc(S(=O)(=O)C3CC3)c(C3CC3)c2)C1` [Example 99], the activation at 10 µM amounted to 326%.
On to `O=C1CC[C@H](/C=C(/C(=O)Nc2nc([C@H](O)CO)cs2)c2ccc(S(=O)(=O)C3CC3)c(C3CC3)c2)C1` [Example 43], for which the activation at 10 µM stood at 391%.
The same measure, in the same setting: the figure for `Cn1ccc(NC(=O)/C(=C/C2CCCC2)c2ccc(S(=O)(=O)C3CC3)c(C3CC3)c2)n1` [Example 24] is 345%.
Same read-out and setting: the figure for `Cc1cnc(NC(=O)/C(=C/C2CCOC2)c2ccc(S(=O)(=O)C3CC3)c(C3CC3)c2)cn1` (stereo not shown) [Example 29] is 300%.
The same measure, in the same setting: the value for `Cn1ccc(NC(=O)[C@H](C[C@H]2CCC(O)C2)c2ccc(S(=O)(=O)C3CC3)c(C3CC3)c2)n1` (stereo partly shown) [Example 85] was 257%.
Turning to `Cn1ccc(NC(=O)/C(=C/C2CCC(=O)C2)c2ccc(S(=O)(=O)C3CC3)c(C3CC3)c2)n1` (stereo not shown) [Example 32], the activation at 10 µM worked out at 410%.
Same read-out and setting: the figure for `O=C(Nc1ccn(CC(O)CO)n1)/C(=C/C1CCCC1)c1ccc(S(=O)(=O)C2CC2)c(C2CC2)c1` (stereo in doubt) [Example 3, (2E)-3-cyclopentyl-2-[3-cyclopropyl-4-(cyclopropylsulfonyl)phenyl]-N-{1-[(2S)-2,3-dihydroxypropyl]-1H-pyrazol-3-yl}acrylamide] is 328%; for `Cn1ccc(NC(=O)/C(=C/[C@@H]2CCC(=O)C2)c2ccc(S(=O)(=O)C3CC3)c(C3CC3)c2)n1` [Example 37] it is 260%.
As for `O=C1CC[C@H](/C=C(/C(=O)Nc2nccs2)c2ccc(S(=O)(=O)C3CC3)c(C3CC3)c2)C1` [Example 40], the activation at 10 µM came to 397%.
Still for that read-out and setting: the figure for `CC(C)(O)c1cnc(NC(=O)[C@H](C[C@H]2CCC(=O)C2)c2ccc(S(=O)(=O)C3CC3)c(C3CC3)c2)cn1` [Example 75] is 307%; for `CC(=O)c1cnc(NC(=O)[C@H](C[C@H]2CCC(=O)C2)c2ccc(S(=O)(=O)C3CC3)c(C3CC3)c2)cn1` [Example 74] it is 337%.
Same read-out and setting: the figure for `Cc1ccc(NC(=O)/C(=C/[C@H]2CCC(=O)C2)c2ccc(S(=O)(=O)C3CC3)c(C3CC3)c2)nc1` [Example 45] is 377%.
With `CC(=O)c1cnc(NC(=O)/C(=C/[C@H]2CCC(=O)C2)c2ccc(S(=O)(=O)C3CC3)c(C3CC3)c2)s1` [Example 39], the activation at 10 µM is 286%.
Same read-out and setting: the value for `O=C1CC[C@H](/C=C(/C(=O)Nc2nc(CF)cs2)c2ccc(S(=O)(=O)C3CC3)c(C3CC3)c2)C1` [Example 46] was 392%; that for `Cc1cnc(NC(=O)/C(=C/C2CCC(=O)C2)c2ccc(S(=O)(=O)C3CC3)c(C3CC3)c2)cn1` (stereo not shown) [Example 31] was 387%.
With `O=C1CC[C@@H](/C=C(/C(=O)Nc2ncc(Cl)s2)c2ccc(S(=O)(=O)C3CC3)c(C3CC3)c2)C1` [Example 35], the activation at 10 µM amounted to 265%.
On the same count and under the same terms, the figure for `O=C1CCC(/C=C(/C(=O)Nc2ncc(Cl)s2)c2ccc(S(=O)(=O)C3CC3)c(C3CC3)c2)C1` (stereo not shown) [Example 33] is 375%; for `O=C(Nc1ccn(C[C@H](O)CO)n1)/C(=C/C1CCCC1)c1ccc(S(=O)(=O)C2CC2)c(C2CC2)c1` [Example 30] it is 309%; for `O=C1CC[C@H](/C=C(/C(=O)Nc2ccc(C(=O)O)cn2)c2ccc(S(=O)(=O)C3CC3)c(C3CC3)c2)C1` [Example 5, 6-({(2E)-2-[3-cyclopropyl-4-(cyclopropylsulfonyl)phenyl]-3-[(1S)-3-oxocyclopentyl]prop-2-enoyl}amino)nicotinic acid monohydrochloride] it is 410%.
Consider `O=C(Nc1ncc(Cl)s1)/C(=C/C1CCOCC1)c1ccc(S(=O)(=O)C2CC2)c(C2CC2)c1` [Example 26], for which the activation at 10 µM was 231%.
Same read-out and setting: the value for `O=C(Nc1ccn(CCCO)n1)/C(=C/C1CCCC1)c1ccc(S(=O)(=O)C2CC2)c(C2CC2)c1` [Example 1, (2E)-3-cyclopentyl-2-[3-cyclopropyl-4-(cyclopropylsulfonyl)phenyl]-N-[1-(3-hydroxypropyl)-1H-pyrazol-3-yl]acrylamide] was 330%; that for `Cc1cnc(NC(=O)/C(=C/C2CCOCC2)c2ccc(S(=O)(=O)C3CC3)c(C3CC3)c2)cn1` [Example 28] was 314%; that for `O=C1CC[C@H](/C=C(/C(=O)Nc2nc3ccc(OCCO)nc3s2)c2ccc(S(=O)(=O)C3CC3)c(C3CC3)c2)C1` [Example 7, (2E)-2-[3-cyclopropyl-4-(cyclopropylsulfonyl)phenyl]-N-[5-(2-hydroxyethoxy)[1,3]thiazolo[5,4-b]pyridin-2-yl]-3-[(1S)-3-oxocyclopentyl]acrylamide] was 418%.
The same measure, in the same setting: the figure for `Cn1ccc(NC(=O)/C(=C/C2CCOCC2)c2ccc(S(=O)(=O)C3CC3)c(C3CC3)c2)n1` [Example 2, (2E)-2-[3-cyclopropyl-4-(cyclopropylsulfonyl)phenyl]-N-(1-methyl-1H-pyrazol-3-yl)-3-(tetrahydro-2H-pyran-4-yl)acrylamide] is 365%; for `Cc1cnc(NC(=O)/C(=C/[C@H]2CCC(=O)C2)c2ccc(S(=O)(=O)C3CC3)c(C3CC3)c2)s1` [Example 48] it is 257%; for `O=C1CCC(/C=C(/C(=O)Nc2cnc(CO)cn2)c2ccc(S(=O)(=O)C3CC3)c(C3CC3)c2)C1` (stereo not shown) [Example 6, (2E)-2-[3-cyclopropyl-4-(cyclopropylsulfonyl)phenyl]-N-[5-(hydroxymethyl)pyrazin-2-yl]-3-(3-oxocyclopentyl)acrylamide] it is 336%.
